Experimental data taken from patent US8044051B2, “Methods and compositions for the production of high concentration alloxazine solutions” (CaridianBCT Biotechnologies, LLC, priority 2006, dated 2011).
“And” between values parts separate entries of the source, which are not always exact repeats. Identical values can stand only once.

Legend:
[1] = Concentration stability of riboflavin preparations over time (Example 4); format: physicochemical; details: stored at ambient temperature and pressure
Method: The concentration stability of riboflavin was measured over a period of time to determine its stability.
Various preparation of riboflavin were prepared.
Samples 1-3 were prepared by adding 10 mg riboflavin to 100 mL saline, heating at 37° C. for 30 minutes, mixing on a stir-plate for 20 minutes, and filtering through a 20 micron filter.
Sample 4 was made by adding 10 mg riboflavin to 100 mL saline, heating, and filtering through a 0.2 micron filter.
Sample 5 was prepared by adding 20 mg riboflavin to 100 mL saline, heating while mixing for 30 minutes, and filtering through a 0.2 micron filter.
Sample 6 was prepared by adding 5 mg riboflavin to 10 mL saline, heating in a water bath at 60° C. for 30 minutes, shaking vigorously for 30 seconds, and filtering through a 0.2 micron filter.
The concentration stability of riboflavin compositions are shown for each preparation. The riboflavin concentration of each experimental heat treated riboflavin sample is above that of the unheated control sample. Further, the concentration remains stable over a period of time when stored at ambient temperature and pressure.

[2] = Saturation point / solubility of riboflavin in aqueous medium at ambient temperature and pressure
Method: An amount of alloxazine is measured for combination with a solvent such as an aqueous medium or a combination of aqueous medium and a non-polar solvent.

[3] = Riboflavin concentration by absorbance after heated mixing in saline and filtration (Example 3); format: physicochemical
Method: Riboflavin (approximately 70 mg) was added to saline (approximately 200 mL) and continuously mixed on a hot plate. The container was covered, and the solution was mixed for 40 minutes. the solution was filtered through a 0.2 micron filter. The filtered solution was diluted 1:10 and its absorbance was measured.
3 mL of the riboflavin and 147 mL saline were combined. […] 30 mL of the riboflavin/saline solution was transferred to each of four 75 cm^2 flasks, which were irradiated two at a time.

Structure (SMILES) | concentration stability over time [1] | solubility compared to untreated riboflavin ([2]; room temperature) | concentrations of riboflavin solutions ([3]; Example 3 riboflavin solutions) | riboflavin decomposition (spectrum) ([3]; after heated mixing 40 minutes and filtration) | riboflavin concentration ([3]; approx. 70 mg in approx. 200 mL saline, mixed on hot plate 40 minutes, 0.2 micron filtered, absorbance of 1:10 dilution) | saturation point concentration of riboflavin ([2]; 22° C. and 1 atmosphere pressure, aqueous medium, untreated)
Cc1cc2nc3c(=O)[nH]c(=O)nc-3n(C[C@H](O)[C@H](O)[C@H](O)CO)c2cc1C [riboflavin derivative alpha] | stable over time | increased solubility | – | – | – | –
Cc1cc2nc3c(=O)[nH]c(=O)nc-3n(C[C@H](O)[C@H](O)[C@H](O)CO)c2cc1C [riboflavin, 7,8-dimethyl-10-ribityl isoalloxazine] | – | – | 515 µM and 528 µM | no evidence of riboflavin decomposition | 540 µM | 114 µM
